Assay [1] relates to TNF-alpha. The assay is described as follows: Inhibition of LPS-induced TNF-alpha release by human monocytes. It counts as cell-based. As to conditions: Monocyte, read-out: Percent Inhibition of TNF-alpha Release.
Assay [2] has as its system PDE4 partially purified from human U-937 promonocytic cells. Put plainly: Inhibition of PDE4 enzyme activity. It counts as biochemical.
Assay [3] has as its target T1, PDE3 partially purified from human platelets (Homo sapiens, UniProt Q14432).
T1 construct: PDE3 partially purified from human platelets were used; from tissue; host or cells: human platelets (partially purified enzyme)
Put plainly: Inhibition of PDE3 enzyme activity. Format: biochemical. As to conditions: read-out: Percent Inhibition of Enzyme Activity.

Assay [4] has as its system p44/42 MAP kinase. The assay is described as follows: Inhibition of phosphorylation of p44/42 MAP kinase in RAW 264.7 gamma NO(-) cells (Western blot). Format: cell-based, mouse. As to conditions: for inhibition of LPS-induced phosphorylation of p44/42 MAP kinase: 10 ng/ml LPS.
The test system of assay [5] is mouse mesenteric lymph node cells. The assay is described as follows: Inhibition of anti-CD3/anti-CD28 stimulated lymphocyte proliferation. Format: cell-based.
In assay [6] the test system is DBA/1J mice. Put plainly: Collagen-induced arthritis in mice. It counts as in vivo, mouse.
Assay [7] relates to TNF-alpha. The assay is described as follows: Inhibition of LPS-induced TNF-alpha production in mice. Conditions: for Percent TNF Production (Mean ± SEM): plasma 1 h after LPS, vehicle = 100%, p < 0.05; for inhibition of LPS-induced TNF-alpha production in mice: 50 or 100 mg/kg oral. Format: in vivo, mouse.
[8] abbreviates: high dose, 100 mg/kg oral twice daily 14 days.

14 compounds from patent US20080188654A1, “Compounds for treatment of inflammation, diabetes and related disorders” (Theracos, Inc., priority 2001, published 2008) can be followed below.

As usually defined, the inhibition is how much of the control response was suppressed. What is called IC50 is the concentration at which inhibition is half-maximal.

T1 sequence (Q14432 whole entry): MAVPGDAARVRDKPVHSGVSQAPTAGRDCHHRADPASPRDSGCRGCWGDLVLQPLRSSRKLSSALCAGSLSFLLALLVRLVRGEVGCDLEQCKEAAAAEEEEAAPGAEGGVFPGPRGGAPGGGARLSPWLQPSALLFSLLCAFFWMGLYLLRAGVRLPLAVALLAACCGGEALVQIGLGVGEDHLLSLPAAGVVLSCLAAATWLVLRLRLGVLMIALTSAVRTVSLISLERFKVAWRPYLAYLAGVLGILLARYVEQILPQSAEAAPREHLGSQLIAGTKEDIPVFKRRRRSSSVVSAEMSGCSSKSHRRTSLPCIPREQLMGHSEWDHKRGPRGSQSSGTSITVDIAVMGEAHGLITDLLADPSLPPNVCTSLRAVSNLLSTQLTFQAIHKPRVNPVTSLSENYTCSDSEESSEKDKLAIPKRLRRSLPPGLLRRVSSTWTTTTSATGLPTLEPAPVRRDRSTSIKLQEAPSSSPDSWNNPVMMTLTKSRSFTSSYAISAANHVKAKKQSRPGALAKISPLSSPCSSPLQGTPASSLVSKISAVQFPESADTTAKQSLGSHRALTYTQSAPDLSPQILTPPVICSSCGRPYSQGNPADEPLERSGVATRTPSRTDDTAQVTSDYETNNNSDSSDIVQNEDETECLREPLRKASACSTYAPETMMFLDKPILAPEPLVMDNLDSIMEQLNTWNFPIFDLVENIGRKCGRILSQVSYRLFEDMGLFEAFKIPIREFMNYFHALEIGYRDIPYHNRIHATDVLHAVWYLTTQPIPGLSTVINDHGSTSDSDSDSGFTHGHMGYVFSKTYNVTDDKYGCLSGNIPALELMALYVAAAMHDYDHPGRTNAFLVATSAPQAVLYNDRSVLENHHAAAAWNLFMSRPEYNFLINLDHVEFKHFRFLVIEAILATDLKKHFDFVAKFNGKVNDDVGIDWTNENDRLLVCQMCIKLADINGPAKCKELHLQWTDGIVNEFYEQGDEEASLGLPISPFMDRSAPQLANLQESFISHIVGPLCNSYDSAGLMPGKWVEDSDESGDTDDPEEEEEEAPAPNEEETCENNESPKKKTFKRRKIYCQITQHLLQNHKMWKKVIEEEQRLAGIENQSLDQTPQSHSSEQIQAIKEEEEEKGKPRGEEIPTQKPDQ

Consider `COc1cc(/C=C(/C(=O)N(C)C)c2ccc(Oc3ccc(CCC(=O)NC(N)=O)cc3)cc2)cc(OC)c1` [Compound 13, 3-(3,5-dimethoxyphenyl)-N,N-dimethyl-2-{4-[4-(3-oxo-3-ureido-propyl)-phenoxy]-phenyl}-acrylamide], for which the inhibition at 0.3 µM in assay [1] was determined as 15%. Further, the inhibition at 1 µM in assay [1] was 40%; in assay [3] (PDE3, 1 μM), 20%. The inhibition at 3 µM in assay [1] worked out at 70%. In addition, the inhibition at 10 µM is 78% in assay [1]; 52% in assay [3] (PDE3, 10 μM); around 50% in assay [5] (Mus musculus, Lymphocyte, 10 μM, stimulated by anti-CD3/anti-CD28 monoclonal antibodies). Further, the inhibition at 30 µM turned out to be 78% in assay [1] and 55% in assay [3] (PDE3, 30 μM). Moreover, in assay [2] (PDE4), the IC50 was below 1000 nM. Further, the “Percent Inhibition of Enzyme Activity” value in assay [2] (PDE4, 1 μM) amounted to 85%; in assay [2] (PDE4, 10 μM), 98%; in assay [2] (PDE4, 30 μM), 102%. In addition, the “inhibition of LPS-induced phosphorylation of p44/42 MAP kinase” value is “not” in assay [4] (10 μM) and “inhibited” in assay [4] (30 μM). The “inhibition of LPS/IFN-gamma induced phosphorylation of p44/42” value in assay [4] (30 μM and 10 μM, LPS (10 ng/ml)/IFN-gamma (10 U/ml)) is reported as “inhibited LPS/IFN-gamma induced phosphorylation of p44/42 in a dose-dependent manner”. Moreover, in assay [5] (10 μM + anti-CD3/anti-CD28 mAbs, 67 h, MTS/PMS, 505 nm), the “O.D. (Mean ± SD)” value amounted to 0.578 ± 0.012.

`COc1cc(/C=C(/C(=O)N(C)C)c2ccc(Oc3ccc(CCC(N)=O)cc3)cc2)cc(OC)c1` [Compound 31, 2-{4-[4-(2-carbamoylethyl)-phenoxy]-phenyl}-3-(3,5-dimethoxyphenyl)-N,N-dimethylacrylamide]: in assay [1], the inhibition at 1 µM is 51%, the inhibition at 3 µM was determined as 73%, the inhibition at 10 µM worked out at 83% and the inhibition at 30 µM is 86%. In addition, in assay [6] (setting [8]), the “arthritis clinical score (severity)” value is reported as “prevented the increase in severity”; the “histology of hind limbs” value was “reduction in incidence and severity of pannus formation, inflammation cell infiltration and bone/cartilage damage”. Also, the “histology of hind limbs” value in assay [6] (low dose, 40 mg/kg oral twice daily 14 days) is “marked chronic inflammation of synovium with pannus formation and destruction of bone and cartilage”. For the same compound, the “arthritis clinical score (severity)” value in assay [6] (low dose, 40 mg/kg oral twice daily 14 days, compared with vehicle) was “no apparent effect”. Besides, the “Percent TNF Production (Mean ± SEM)” value in assay [7] (50 mg/kg oral) came to 68 ± 11%. Besides, the “Percent TNF Production (Mean ± SEM)” value in assay [7] (100 mg/kg oral) amounted to 53 ± 20%. For the same compound, the “inhibition of LPS-induced TNF-alpha production in mice” value in assay [7] is reported as “significantly inhibited”.

In the case of `CCOC(=O)CCc1ccc(Oc2ccc(/C(=C\c3cc(OC)cc(OC)c3)C(=O)N(C)C)cc2)cc1` [Compound 37, 3-(4-{4-[2-(3,5-dimethoxyphenyl)-1-dimethylcarbamoylvinyl]-phenoxy}-phenyl)-propionic acid ethyl ester], in assay [1], the inhibition at 1 µM worked out at 17%, the inhibition at 3 µM amounted to 38%, the inhibition at 10 µM worked out at 65% and the inhibition at 30 µM is 78%.

As to `COc1cc(/C=C(/C(=O)N(C)C)c2ccc(NC(=O)c3cccc(O)c3)cc2)cc(OC)c1` [Compound 44, N-{4-[2-(3,5-dimethoxyphenyl)-1-dimethylcarbamoylvinyl]-phenyl}-3-hydroxybenzamide], in assay [1], the inhibition at 0.3 µM worked out at 32%, the inhibition at 3 µM was determined as 67% and the inhibition at 30 µM turned out to be 91%.

For the compound `COc1cc(/C=C(/C(=O)N(C)C)c2ccc(O)cc2)cc(OC)c1` [Compound 49, 3-(3,5-dimethoxyphenyl)-2-(4-hydroxyphenyl)-N,N-dimethylacrylamide], in assay [1], the inhibition at 3 µM is 14%, the inhibition at 10 µM came out at 47% and the inhibition at 30 µM turned out to be 54%.

In the case of `CC(=O)NC(=O)CCc1ccc(Oc2ccc(/C(=C\c3ccc(F)cc3)C(=O)N(C)C)cc2)cc1` [Compound 56, 2-{4-[4-(3-acetylamino-3-oxopropyl)-phenoxy]-phenyl}-3-(4-fluorophenyl)-N,N-dimethylacrylamide], in assay [1], the inhibition at 0.3 µM was 1%, the inhibition at 3 µM stood at 6% and the inhibition at 30 µM is 54%.

`COc1cc(/C=C(/C(=O)N(C)C)c2ccc(Oc3ccc(CC(C(N)=O)C(N)=O)cc3)cc2)cc(OC)c1` [Compound 59, 2-(4-{4-[2-(3,5-dimethoxyphenyl)-1-dimethylcarbamoylvinyl]-phenoxy}-benzyl)-malonamide]: in assay [1], the inhibition at 0.3 µM came out at 27%, the inhibition at 3 µM turned out to be 69% and the inhibition at 30 µM was determined as 80%.

For `COc1cc(/C=C(/C(=O)N(C)C)c2ccc(Oc3ccccn3)cc2)cc(OC)c1` [Compound 66, 3-(3,5-dimethoxyphenyl)-N,N-dimethyl-2-[4-(pyridin-2-yloxy)-phenyl]-acrylamide], in assay [1], the inhibition at 0.3 µM was found to be 27%, the inhibition at 3 µM is 53% and the inhibition at 30 µM amounted to 84%.

With `COc1cc(/C=C(/C(=O)N(C)C)c2ccc(NC(=O)c3ccccc3)cc2)cc(OC)c1` [Compound 67, N-{4-[2-(3,5-dimethoxyphenyl)-1-dimethylcarbamoylvinyl]-phenyl}-benzamide], in assay [1], the inhibition at 0.3 µM stood at 40%, the inhibition at 3 µM was determined as 62% and the inhibition at 30 µM was 89%.

As to `CCOC(=O)CCc1ccc(Oc2ccc(C(=Cc3ccc4c(c3)OCO4)C(=O)N(C)C)cc2)cc1` [Compound 69, 3-{4-[4-(2-benzo[1,3]dioxol-5-yl-1-dimethylcarbamoylvinyl)-phenoxy]-phenyl}-propionic acid ethyl ester], in assay [1], the inhibition at 0.3 µM came to 1%, the inhibition at 3 µM amounted to 22% and the inhibition at 30 µM was found to be 50%.

As for `CN(C)C(=O)/C(=C/c1cccnc1)c1ccc(Oc2ccc(CC(C(N)=O)C(N)=O)cc2)cc1` [Compound 71, 2-{4-[4-(1-dimethylcarbamoyl-2-pyridin-3-ylvinyl)-phenoxy]-benzyl}-malonamide], in assay [1], the inhibition at 0.3 µM came out at 20%, the inhibition at 3 µM was 47% and the inhibition at 30 µM came out at 65%.

On to `CN(C)C(=O)/C(=C/c1cccnc1)c1ccc(Oc2ccc(CCC(=O)NC(N)=O)cc2)cc1` [Compound 73, N,N-dimethyl-2-{4-[4-(3-oxo-3-ureidopropyl)-phenoxy]-phenyl}-3-pyridin-3-yl-acrylamide], for which, in assay [1], the inhibition at 0.3 µM came to 30%, the inhibition at 3 µM is 62% and the inhibition at 30 µM is 81%.

For the compound `CN(C)C(=O)/C(=C/c1cccnc1)c1ccc(Oc2ccc(CCC(N)=O)cc2)cc1` [Compound 77, 2-{4-[4-(2-carbamoyl-ethyl)-phenoxy]-phenyl}-N,N-dimethyl-3-pyridin-3-yl-acrylamide], the “Percent TNF Production (Mean ± SEM)” value in assay [7] (50 mg/kg oral) was 54 ± 10%; in assay [7] (100 mg/kg oral), 67 ± 20%. In assay [7], the “inhibition of LPS-induced TNF-alpha production in mice” value was “significantly inhibited”.

As for `CN(Cc1cnc2nc(N)nc(N)c2n1)c1ccc(C(=O)N[C@@H](CCC(=O)O)C(=O)O)cc1` [Methotrexate, methotrexate, reference compound], the “Percent TNF Production (Mean ± SEM)” value in assay [7] (10 mg/kg oral) amounted to 61 ± 5%.
